Results taken from paper PMC9579148 (European Journal of Medicinal Chemistry, 2022).
Residues, ends and D or L forms follow the SMILES beside them. *: point of attachment. Octanoyl = CCCCCCCC(=O)*; Boc = CC(C)(C)OC(=O)*

How the values were obtained:
[1] = system: SARS-CoV-2; details: read-out: anti-SARS-CoV-2 activity EC50; cited from earlier work
[2] = Stability test in aqueous solution; format: physicochemical; details: PBS pH 7.0, 25 °C and 37 °C, 3, 6, 8 and 24 h, HPLC
[3] = system: Vero cells
[4] = system: SARS-CoV-2 RG2674 (South African); assay: Antiviral CPE reduction assay in Vero cells, RG2674; format: cell-based; details: 100 CCID50, CPE, 5 days
[5] = biological target: SARS-CoV-2 M^pro (Severe acute respiratory syndrome coronavirus 2, UniProt P0DTD1); format: binding; details: ITC
[6] = system: M^pro; details: octapeptide progenitor, earlier work; cited from earlier work

| Molecule | EC50 [1] [µM] | Cytotoxicity, Cell morphology (MCC) [3] [μM] | Stoichiometry (N) [5] | also measured |
| --- | --- | --- | --- | --- |
| Cc1cc(C(=O)N[C@@H](C)C(=O)N[C@H](C(=O)N[C@@H](CC(C)C)C(=O)N[C@H](/C=C/C(=O)OCc2ccccc2)C[C@@H]2CCNC2=O)C(C)C)no1 [N3, reference compound] | 16.8 ± 1.7 |  |  |  |
| CC(=O)NCC(=O)N[C@@H](Cc1ccccc1)C(=O)N[C@H](C=O)Cc1c[nH]cn1 [compound 4, Ac-Gly-Phe-His-CHO] (Ac-Gly-Phe-His-aldehyde) |  | ≥100 | 1.040 ± 0.012 | Stability in aqueous solution [2]: stable; Antiviral activity (EC50) RG2674 [4]: ineffective |
| CC(C)(C)OC(=O)NCC(=O)N[C@@H](Cc1ccccc1)C(=O)N[C@H](C=O)Cc1c[nH]cn1 [compound 57, Boc-Gly-Phe-His-CHO] (Boc-Gly-Phe-His-aldehyde) |  | ≥100 | 0.991 ± 0.015 |  |
| CCCCCCCC(=O)NCC(=O)N[C@@H](Cc1ccccc1)C(=O)N[C@H](C=O)Cc1c[nH]cn1 [compound 58, Octanoyl-Gly-Phe-His-CHO] (Octanoyl-Gly-Phe-His-aldehyde) |  | ≥100 | 0.966 ± 0.013 |  |
| AT1001 |  |  |  | enzymatic inhibition activity (partial inhibition) [6]: about 30% |
| Ac-GGVLVQPG-NH2 [peptide 2] | 17.6 ± 2.4 |  |  |  |
